Measurements as given in EP3046573B1, “AMYLIN ANALOGUES” (Zealand Pharma A/S, priority 2013, dated 2015).
pEC50: −log10 of the molar value. Numbered stars: 1 amine (or outer) side, 2 acyl side, 3 side chain; on linkers, the order of the positions; unused ones are H or OH. Bridge positions count the residues as written; N and C are the ends. Square brackets hold non-standard residues; d marks the D form. Peptide text beside a SMILES is read from it. * marks the point of attachment. C20 diacid = O=C(O)CCCCCCCCCCCCCCCCCCC(=O)*; γGlu = O=C(O)[C@H](CCC(=O)[*:2])N[*:1]; NMeI = CC[C@H](C)[C@H](NC)C(=O)O; Sar = CNCC(=O)O

Key:
[1] = Solubility assessment (turbidity absorbance at 325 nm); format: physicochemical; settings: stock 2 mg/ml diluted 1:1, ambient temperature (typically 25°C), n=1; for Solubility, Acetate buffer pH 4: 100 mM acetate buffer pH 4.0; for Solubility, Acetate buffer pH 5: 100 mM acetate buffer pH 5.0; for Solubility, Histidine buffer pH 6: 100 mM histidine buffer pH 6.0; for Solubility, Histidine buffer pH 7: 100 mM histidine buffer pH 7.0; for Solubility, Phosphate buffer pH 6: 100 mM phosphate buffer pH 6.0; for Solubility, Phosphate buffer pH 7: 100 mM phosphate buffer pH 7.0; for Solubility, Phosphate buffer pH 7.5: 100 mM phosphate buffer pH7.5
How it was run: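 Turbidimetric screen across pH 4.0–7.5 in 100 mM acetate, histidine and phosphate buffers. A 2 mg/ml peptide stock (pH 2.5) was diluted 1:1 into each, then A325 measured at ambient temperature; values ≤ 0.02 AU denoted solubility of 1 mg/ml or more.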

[2] = molecular target: T1, human calcitonin receptor (hCTR2) (Homo sapiens, UniProt P30988); assay: hCTR2 assay: induction of cAMP (AlphaScreen cAMP Assay kit) in COS7 cells expressing hCTR2; format: cell-based
T1 construct: expressed in transfected cells
T1 sequence (P30988 25-474): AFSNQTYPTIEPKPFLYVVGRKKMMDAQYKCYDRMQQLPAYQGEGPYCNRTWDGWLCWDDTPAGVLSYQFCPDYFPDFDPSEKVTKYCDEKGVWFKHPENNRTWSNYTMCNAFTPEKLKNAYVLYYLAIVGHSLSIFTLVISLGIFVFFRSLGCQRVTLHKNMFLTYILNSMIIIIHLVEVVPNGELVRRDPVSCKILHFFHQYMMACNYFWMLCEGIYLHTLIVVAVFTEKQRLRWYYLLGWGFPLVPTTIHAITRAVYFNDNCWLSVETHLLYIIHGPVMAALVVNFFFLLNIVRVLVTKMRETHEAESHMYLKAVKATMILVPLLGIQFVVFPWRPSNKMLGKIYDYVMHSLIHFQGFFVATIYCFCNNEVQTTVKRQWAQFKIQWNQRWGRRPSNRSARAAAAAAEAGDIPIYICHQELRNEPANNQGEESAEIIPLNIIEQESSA
How it was run: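 cAMP read-out by AlphaScreen after cell lysis; EC50 and % efficacy vs pramlintide from 4-parameter logistic fitting. Agonist stimulation: hCTR2-COS7 stable cells, 15 min, 37° C, 100 µM IBMX, 0.1% casein, Tyrode/HEPES pH 7.4.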

[3] = molecular target: T2, human amylin receptor 3 (hAMYR3) consisting of hCTR2 co-expressed with human Receptor Activity Modifying Protein 3 (hRAMP3) (Homo sapiens, UniProt O60896+P30988); assay: hAMYR3 assay: induction of cAMP (AlphaScreen cAMP Assay kit) in COS7 cells expressing hAMYR3; format: cell-based
T2 construct: expressed in transfected cells
T2 sequence (P30988 25-474): T1 sequence (P30988 25-474)
T2 sequence (O60896 24-148 partner): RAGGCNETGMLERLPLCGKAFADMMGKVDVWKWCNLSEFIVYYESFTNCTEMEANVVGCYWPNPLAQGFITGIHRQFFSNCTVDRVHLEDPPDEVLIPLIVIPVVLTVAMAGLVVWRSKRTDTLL
How it was run: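 cAMP accumulation read by AlphaScreen in lysates of RAMP-naive COS7 cells stably transfected with hCTR2 plus hRAMP3. Cells exposed to peptide dilutions for 15 min, 37° C, with 100 µM IBMX; 4PL fitting gave EC50 and efficacy relative to pramlintide.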

SMILES	Solubility, Acetate buffer pH 4 [1]	Solubility, Acetate buffer pH 5 [1]	Solubility, Histidine buffer pH 6 [1]	Solubility, Histidine buffer pH 7 [1]	Solubility, Phosphate buffer pH 6 [1]	Solubility, Phosphate buffer pH 7 [1]	Solubility, Phosphate buffer pH 7.5 [1]	pEC50 [2]	pEC50 [3]
CC[C@H](C)[C@@H](C(=O)N[C@@H](CC(C)C)C(=O)N[C@@H](CO)C(=O)N[C@@H](CO)C(=O)N[C@H](C(=O)N[C@@H](CC(N)=O)C(=O)N[C@H](C(=O)NCC(=O)N[C@@H](CO)C(=O)N[C@@H](CC(N)=O)C(=O)N[C@H](C(=O)N1CCC[C@H]1C(N)=O)[C@@H](C)O)C(C)C)[C@@H](C)O)N(C)C(=O)[C@H](C)NC(=O)CN(C)C(=O)[C@H](Cc1ccccc1)NC(=O)[C@H](CC(N)=O)NC(=O)[C@H](CC(N)=O)NC(=O)[C@H](CO)NC(=O)[C@H](CO)NC(=O)[C@H](CCCNC(=N)N)NC(=O)[C@H](Cc1c[nH]cn1)NC(=O)[C@H](CC(C)C)NC(=O)[C@H](Cc1ccccc1)NC(=O)[C@H](CCC(=O)O)NC(=O)[C@H](C)NC(=O)[C@H](CC(C)C)NC(=O)[C@H](CCCNC(=N)N)NC(=O)[C@H](CCC(N)=O)NC(=O)[C@@H](NC(=O)[C@H](C)NC(=O)[C@@H]1CSSC[C@H](NC(=O)[C@H](CCCNC(=N)N)NC(=O)[C@H](CCCCN)NC(=O)CC[C@H](NC(=O)CCCCCCCCCCCCCCCCCCC(=O)O)C(=O)O)C(=O)N[C@@H](CC(N)=O)C(=O)N[C@@H]([C@@H](C)O)C(=O)N[C@@H](C)C(=O)N[C@@H]([C@@H](C)O)C(=O)N1)[C@@H](C)O [Compound 84, [19CD]-isoGlu-KRC()NTATC()ATQRLAEFLHRSSNNF-Gly(Me)-A-Ile(Me)-LSSTNVGSNTP-NH2] ({C20 diacid-γGlu}-KRCNTATCATQRLAEFLHRSSNNF[Sar]A[NMeI]LSSTNVGSNTP-NH2; disulfide 3-8)	SS (SS indicates solubility ≥ 1mg/ml)	SS (SS indicates solubility ≥ 1mg/ml)	SS (SS indicates solubility ≥ 1mg/ml)	SS (SS indicates solubility ≥ 1mg/ml)	SS (SS indicates solubility ≥ 1mg/ml)	SS (SS indicates solubility ≥ 1mg/ml)	SS (SS indicates solubility ≥ 1mg/ml)	9.96	10.00
CC[C@H](C)[C@@H](C(=O)N[C@@H](CC(C)C)C(=O)N[C@@H](CO)C(=O)N[C@@H](CO)C(=O)N[C@H](C(=O)N[C@@H](CC(N)=O)C(=O)N[C@H](C(=O)NCC(=O)N[C@@H](CO)C(=O)N[C@@H](CC(N)=O)C(=O)N[C@H](C(=O)NCC(N)=O)[C@@H](C)O)C(C)C)[C@@H](C)O)N(C)C(=O)[C@H](C)NC(=O)CN(C)C(=O)[C@H](Cc1ccccc1)NC(=O)[C@H](CC(N)=O)NC(=O)[C@H](CC(N)=O)NC(=O)[C@H](CO)NC(=O)[C@H](CO)NC(=O)[C@H](CCCNC(=N)N)NC(=O)[C@H](Cc1c[nH]cn1)NC(=O)[C@H](CC(C)C)NC(=O)[C@H](Cc1ccccc1)NC(=O)[C@H](CCC(=O)O)NC(=O)[C@H](C)NC(=O)[C@H](CC(C)C)NC(=O)[C@H](CCCNC(=N)N)NC(=O)[C@H](CCC(N)=O)NC(=O)[C@@H](NC(=O)[C@H](C)NC(=O)[C@@H]1CSSC[C@H](NC(=O)[C@H](CCCNC(=N)N)NC(=O)CC[C@H](NC(=O)CCCCCCCCCCCCCCCCCCC(=O)O)C(=O)O)C(=O)N[C@@H](CC(N)=O)C(=O)N[C@@H]([C@@H](C)O)C(=O)N[C@@H](C)C(=O)N[C@@H]([C@@H](C)O)C(=O)N1)[C@@H](C)O [Compound 96, [19CD]-isoGlu-RC()NTATC()ATQRLAEFLHRSSNNF-Gly(Me)-A-Ile(Me)-LSSTNVGSNTG-NH2] ({C20 diacid-γGlu}-RCNTATCATQRLAEFLHRSSNNF[Sar]A[NMeI]LSSTNVGSNTG-NH2; disulfide 2-7)	SS (SS indicates solubility ≥ 1mg/ml)	SS (SS indicates solubility ≥ 1mg/ml)	SS (SS indicates solubility ≥ 1mg/ml)	SS (SS indicates solubility ≥ 1mg/ml)	SS (SS indicates solubility ≥ 1mg/ml)	SS (SS indicates solubility ≥ 1mg/ml)	SS (SS indicates solubility ≥ 1mg/ml)	9.47	8.25
CC[C@H](C)[C@@H](C(=O)N[C@@H](CC(C)C)C(=O)N[C@@H](CO)C(=O)N[C@@H](CO)C(=O)N[C@H](C(=O)N[C@@H](CC(N)=O)C(=O)N[C@H](C(=O)NCC(=O)N[C@@H](CO)C(=O)N[C@@H](CC(N)=O)C(=O)N[C@H](C(=O)N[C@@H](C)C(N)=O)[C@@H](C)O)C(C)C)[C@@H](C)O)N(C)C(=O)[C@H](C)NC(=O)CN(C)C(=O)[C@H](Cc1ccccc1)NC(=O)[C@H](CC(N)=O)NC(=O)[C@H](CC(N)=O)NC(=O)[C@H](CO)NC(=O)[C@H](CO)NC(=O)[C@H](CCCNC(=N)N)NC(=O)[C@H](Cc1c[nH]cn1)NC(=O)[C@H](CC(C)C)NC(=O)[C@H](Cc1ccccc1)NC(=O)[C@H](CCC(=O)O)NC(=O)[C@H](C)NC(=O)[C@H](CC(C)C)NC(=O)[C@H](CCCNC(=N)N)NC(=O)[C@H](CCC(N)=O)NC(=O)[C@@H](NC(=O)[C@H](C)NC(=O)[C@@H]1CSSC[C@H](NC(=O)[C@H](CCCNC(=N)N)NC(=O)CC[C@H](NC(=O)CCCCCCCCCCCCCCCCCCC(=O)O)C(=O)O)C(=O)N[C@@H](CC(N)=O)C(=O)N[C@@H]([C@@H](C)O)C(=O)N[C@@H](C)C(=O)N[C@@H]([C@@H](C)O)C(=O)N1)[C@@H](C)O [Compound 97, [19CD]-isoGlu-RC()NTATC()ATQRLAEFLHRSSNNF-Gly(Me)-A-Ile(Me)-LSSTNVGSNTA-NH2] ({C20 diacid-γGlu}-RCNTATCATQRLAEFLHRSSNNF[Sar]A[NMeI]LSSTNVGSNTA-NH2; disulfide 2-7)	SS (SS indicates solubility ≥ 1mg/ml)	SS (SS indicates solubility ≥ 1mg/ml)	SS (SS indicates solubility ≥ 1mg/ml)	SS (SS indicates solubility ≥ 1mg/ml)	SS (SS indicates solubility ≥ 1mg/ml)	SS (SS indicates solubility ≥ 1mg/ml)	SS (SS indicates solubility ≥ 1mg/ml)	9.48	9.17
CC[C@H](C)[C@@H](C(=O)N[C@@H](CC(C)C)C(=O)N[C@@H](CO)C(=O)N[C@@H](CO)C(=O)N[C@H](C(=O)N[C@@H](CC(N)=O)C(=O)N[C@H](C(=O)NCC(=O)N[C@@H](CO)C(=O)N[C@@H](CC(N)=O)C(=O)N[C@H](C(=O)N[C@H](C(N)=O)C(C)C)[C@@H](C)O)C(C)C)[C@@H](C)O)N(C)C(=O)[C@H](C)NC(=O)CN(C)C(=O)[C@H](Cc1ccccc1)NC(=O)[C@H](CC(N)=O)NC(=O)[C@H](CC(N)=O)NC(=O)[C@H](CO)NC(=O)[C@H](CO)NC(=O)[C@H](CCCNC(=N)N)NC(=O)[C@H](Cc1c[nH]cn1)NC(=O)[C@H](CC(C)C)NC(=O)[C@H](Cc1ccccc1)NC(=O)[C@H](CCC(=O)O)NC(=O)[C@H](C)NC(=O)[C@H](CC(C)C)NC(=O)[C@H](CCCNC(=N)N)NC(=O)[C@H](CCC(N)=O)NC(=O)[C@@H](NC(=O)[C@H](C)NC(=O)[C@@H]1CSSC[C@H](NC(=O)[C@H](CCCNC(=N)N)NC(=O)CC[C@H](NC(=O)CCCCCCCCCCCCCCCCCCC(=O)O)C(=O)O)C(=O)N[C@@H](CC(N)=O)C(=O)N[C@@H]([C@@H](C)O)C(=O)N[C@@H](C)C(=O)N[C@@H]([C@@H](C)O)C(=O)N1)[C@@H](C)O [Compound 98, [19CD]-isoGlu-RC()NTATC()ATQRLAEFLHRSSNNF-Gly(Me)-A-Ile(Me)-LSSTNVGSNTV-NH2] ({C20 diacid-γGlu}-RCNTATCATQRLAEFLHRSSNNF[Sar]A[NMeI]LSSTNVGSNTV-NH2; disulfide 2-7)	SS (SS indicates solubility ≥ 1mg/ml)	SS (SS indicates solubility ≥ 1mg/ml)	SS (SS indicates solubility ≥ 1mg/ml)	SS (SS indicates solubility ≥ 1mg/ml)	II (II indicates solubility ≤ 1 mg/ml)	SS (SS indicates solubility ≥ 1mg/ml)	SS (SS indicates solubility ≥ 1mg/ml)	9.46	8.77
